Drawing on ChEMBL document CHEMBL1158005, “New 12a-hydroxyrotenoids from gliricidia sepium bark” (J Nat Prod, 1999), this text covers LC50 for three compounds.

In brackets after ≈: the same amount, converted by molar mass.

This series in a line: Toxicity in Artemia salina larvae after 24 hrs. The conditions noted are these: in vivo. In kind it is organism-based.
As a reminder, the LC50 is the concentration that kills 50% of the test population. Lower therefore signals a more lethal substance. In turn, `COc1cc2c(cc1OC)[C@]1(O)C(=O)c3ccc(O)cc3O[C@@H]1CO2` showed an LC50 at 24 h of 284 µg/mL (≈ 826 µM).
For the compound `COc1ccc2c(c1)OC[C@H]1Oc3cc(O)ccc3C(c3cc([C@@H]4COc5cc(O)ccc5C4)ccc3OC)[C@@]21O` (stereo partly drawn) [GLIRICIDIN], the LC50 at 24 h was determined as 244 µg/mL (≈ 439 µM).
The figure for `COc1ccc2c(c1)OC[C@H]1Oc3cc(O)ccc3C(=O)[C@@]21O` [GLIRICIDOL] is 50.7 µg/mL (≈ 161 µM).
